What was measured:
[1] = Intestinal stability, human intestinal S9; type: in vitro ADME
Description: (§1) The stability of compounds 1 and 2, and the control compound 7-hydroxycoumarin, were measured using human, rat, and mouse intestinal S9 fractions (Xenotech). Test compound working solutions were prepared by diluting 5 μL of 10 mM stock solutions in DMSO with 495 μL AN. S9 solutions were prepared by diluting the obtained S9 solutions to 1.0 mg/mL in 100 mM potassium phosphate buffer at pH 7.4 containing 10 mM D-saccharic acid-1,4-lactone. An Apricot automation workstation was used to add 100 μL/well of S9 solution to all reaction plates (Blank, T0, T5, T15, T30, T45, T60 and NCF60); 2 μL/well of compound working solutions were added to all 96-well reaction plates except the blank (T0, T5, T15, T30, T45, T60, and NCF60); 600 μL/well of stop solution (4° C. ACN containing 200 ng/mL tolbutamide and 200 ng/mL labetalol as internal standards) was added to the T0 reaction plate; all plates were pre-incubated at 37° C. for 10 minutes; a cofactor regenerating system (98 μL/well) was added, excluding the NCF60 plate which instead received 98 μL/well of 100 mM potassium phosphate buffer. All plates were then incubated at 37° C. To terminate reactions, 600 μL/well of stop solution was applied at specific end time points. After sealing and a 10-minute shaking, plates were centrifuged at 4000 rpm and 4° C. for 20 minutes. Concurrently, 300 μL/well of HPLC grade water was loaded onto eight new 96-well bioanalysis plates. Post-centrifugation, 100 μL supernatant from each reaction plate was transferred to its corresponding bioanalysis plate, shaken for 10 minutes, and then subjected to LC-MS/MS analysis (Shimadzu LC-40D LC system coupled to a Sciex Qtrap 6500 Plus mass spectrometer, using both positive and negative ion modes).

[2] = Intestinal stability, rat intestinal S9; type: in vitro ADME
Description: as §1

[3] = Conjugate formation in intestinal S9 incubations; type: in vitro ADME, human, rat, mouse
Description: as §1, with “Concurrently, 300 μL/well of HPLC grade water was loaded onto eight new 96-well bioanalysis plates. Post-centrifugation, 100 μL supernatant from each reaction plate was transferred to its corresponding bioanalysis plate, shaken for 10 minutes, and then subjected to LC-MS/MS analysis (Shimadzu LC-40D LC system coupled to a Sciex Qtrap 6500 Plus mass spectrometer, using both positive and negative ion modes).” left out

[4] = Pharmacokinetics in the rat, dosing in solution; conditions: rat, in vivo, 25 mg/kg
[5] = Pharmacokinetics in the rat, solid form (powder in mini-capsules); type: in vivo; conditions: rat, in vivo
[6] = test system: mdx mice; assay: mdx mice, blood cytokine analysis; type: in vivo, mouse; conditions: 20 mg/Kg/day by gavage, four-month-old mdx mice
Excerpt: Dis., 21, 579-589 (2011), “Duchenne muscular dystrophy (DMD) is the most common lethal X-linked recessive disorder, affecting 1 in 3500 live male births. DMD children show early symptoms of muscle degeneration, frequently develop contractures, and lose the ability to walk by 13 years of age. With disease. progression, most patients succumb to death from respiratory failure and cardiac dysfunction in early adulthood. The primary cause of this disease stems from the lack of the protein dystrophin, which is essential for the structural and functional integrity of muscle membrane. Dystrophin absence results in membrane damage, allowing massive infiltration of immune cells, chronic inflammation, necrosis, and severe muscle degeneration . . . . […] The genistein phosphate derivatives of this invention are therefore expected to be useful for the treatment of subjects with Duchenne muscular dystrophy.

[7] = test system: chondrocyte pellets differentiated from human mesenchymal stem cells (MSCs); assay: Mini-joint model, IL-1β inflamed chondrocyte pellets, PCR analysis; type: cell-based; conditions: up to 5 μM with 0.01 ng/mL IL-1β for 3 days
Description: In the mini-joint model, human mesenchymal stem cells (MSCs) were differentiated into chondrocytes in pellet culture over a period of 3 weeks. The chondrocyte pellets were then maintained in a medium containing 0.5 ng/mL of TGF-β for 1 week. Inflammation was induced by treating the pellets with 1 ng/mL of IL-1β for 1 day. Following this, the pellets were treated with compound 2 at up to 5 μM together with 0.01 ng/mL of IL-1β to sustain the inflammatory environment for 3 days. At the conclusion of the treatment, the pellets were collected for PCR analysis.

[8] = test system: mice with cerulein-induced acute edematous pancreatitis; assay: Cerulein model of acute edematous pancreatitis; type: in vivo, mouse; conditions: 100 mg/Kg by gavage 30 minutes after first and fourth cerulein injections; initial findings
Description: Using the cerulein model, acute edematous pancreatitis was induced in two test groups of mice by eight hourly intraperitoneal injections of 50 μg/Kg cerulein, with control group mice receiving injections of physiological saline. Compound 2, at 100 mg/Kg, was administered to one of the cerulein groups by gavage 30 minutes after the first and fourth cerulein injections. Mice were sacrificed one hour after the last injection and tissues were collected for histological analysis. […] Recurrent acute pancreatitis (RAP) and chronic pancreatitis (CP) were induced by repetitive cerulein injections every third day over a span of 14 days (RAP) or 6 weeks (CP). Compound 2 was administered daily at 50 mg/Kg on the last 10 consecutive days for RAP and at 100 mg/Kg on the last 4 weeks for CP, with vehicle controls. Mice were sacrificed 1 day after the last cerulein injection and tissues were collected for histological analysis. In the CP model, the cerulein injections induced extensive acinar cell damage.

[9] = test system: patients with moderate to severe rheumatoid arthritis; assay: Randomized, double-blind, placebo-controlled study in rheumatoid arthritis; type: in vivo, human; conditions: oral 500 mg capsule once daily for 24 weeks; expected
Description: Approximately 120 patients, ages 30-65, diagnosed with rheumatoid arthritis according to the 2010 ACR/EULAR classification criteria, are enrolled in a randomized, double-blind, placebo-controlled study to evaluate the efficacy of compound 2 in patients with moderate to severe rheumatoid arthritis. Participants are randomized to receive either oral compound 2 (500 mg capsule) or placebo once daily for a period of 24 weeks. The primary efficacy endpoint is the improvement in the Disease Activity Score-28 (DAS28) with C-reactive protein (CRP) at week 24. A clinically meaningful reduction in DAS28 score is defined as a reduction of ≥1.2 points from baseline. Secondary endpoints include: Improvement in physical function as measured by the Health Assessment Questionnaire Disability Index (HAQ-DI), reduction in morning stiffness and joint pain, and changes in levels of inflammatory cytokines such as TNF-α, IL-6, and IL-1β. […] Additionally, compound 2 is expected to reduce serum levels of pro-inflammatory cytokines and markers of joint damage such as matrix metalloproteinases (MMPs), thus providing evidence of its disease-modifying effects.

[10] = intestinal S9 fraction, pH 7.4, read-out: intrinsic clearance rate

## O=c1c(-c2ccc(O)cc2)coc2cc(OCOP(=O)(O)O)cc(O)c12 [Compound 2, ((5-Hydroxy-3-(4-hydroxyphenyl)-4-oxo-4H-chromen-7-yl)oxy)methyl dihydrogen phosphate]
[1]
  normalized control factor remaining: 56.6%
[1]; intestinal S9 fraction, pH 7.4
  half-life at 1 µM: 26.8 min
[1]; [10]
  microsomal CLint at 1 µM: 51.7 µL/min/mg
[2]
  normalized control factor remaining: 68.6%
[2]; intestinal S9 fraction, pH 7.4
  half-life at 1 µM: 48.3 min
[2]; [10]
  microsomal CLint at 1 µM: 28.7 µL/min/mg
[3]
  formation of glucuronidation, sulfation, and glutathione conjugates: noticeable absence
[4]; male, SD
  Cmax: ~30 ng/mL
  Tmax: ~8 min
[4]
  decline of plasma concentration of dosed compound: very rapid decline in concentration
[5]; male, SD, po
  half-life: ~120 min
[5]; male, SD, po, 100 mg/kg
  Tmax: ~10 min
[5]; 100 mg/kg
  decline of plasma concentration of dosed compound: slower rapid decline in concentration than for solution dosing
[6]
  Leptin in blood: significantly reduced
  blood cytokines BAFF, BTC, CCL7, CCL11, CSF3, CXCL10, IL-1α, IL-1β, IL-5, IL-10, IL-18, IL-19, IL-2RA, IL-7RA, LIF, MIP-10, MIP2, TNF-α, VEGF: appeared to be reduced
[7]
  COL2 expression: increasing
  MMP12 expression: decreasing
  TNF-α expression: decreasing
  chondrogenesis (expression of collagen A): promote
[8]
  acute edematous pancreatitis marked by necrosis, inflammation and edema in the pancreas (histology): efficacious in reversing
[9]
  serum levels of pro-inflammatory cytokines: reduce

Source: patent US20250170154A1 (GreenStone Biosciences, Inc., priority 2023, published 2025)
